The text below walks through data of BindingDB's records for doi:10.1016/0166-4328(96)00087-3 (Smithkline Beecham Pharmaceuticals, 1996).

Assay [1] addresses 5-hydroxytryptamine receptor 2A (Rattus norvegicus, UniProt P14842).
For assay [2], the target named is Histamine H1 receptor (Cavia porcellus, UniProt P31389).
The target in assay [3] is 5-hydroxytryptamine receptor 1D (Homo sapiens, UniProt P28221).
Assay [4] concerns the target 5-hydroxytryptamine receptor 1A (Rattus norvegicus, UniProt P19327).
The target in assay [5] is D(2) dopamine receptor (Rattus norvegicus, UniProt P61169).
The target in assay [6] is 5-hydroxytryptamine 1D receptor (Bos taurus, UniProt Q8MI13).
Assay [7] concerns the target 5-hydroxytryptamine receptor 1B (Oryctolagus cuniculus, UniProt P49144).
In assay [8] the target is 5-hydroxytryptamine receptor 2A (Oryctolagus cuniculus, UniProt G1SYA7).
For assay [9], the target named is 5-hydroxytryptamine receptor 2B (Rattus norvegicus, UniProt P30994).
Assay [10] addresses 5-hydroxytryptamine receptor 4 (Sus scrofa, UniProt Q29006).
The target of assay [11] is Alpha-1A adrenergic receptor (Oryctolagus cuniculus, UniProt O02824).
The target in assay [12] is Alpha-2C adrenergic receptor (Rattus norvegicus, UniProt P22086).
The target in assay [13] is Beta-1 adrenergic receptor (Cavia porcellus, UniProt B0FL73).
For assay [14], the target named is Beta-2 adrenergic receptor (Sylvilagus floridanus, UniProt Q9BFY9).
In assay [15] the target is Muscarinic acetylcholine receptor M3 (Sus scrofa, UniProt P11483).
For assay [16], the target named is D(1A) dopamine receptor (Rattus norvegicus, UniProt P18901).
Assay [17] deals with Histamine H2 receptor (Oryctolagus cuniculus, UniProt G1TWL8).
Assay [18] concerns the target Beta-1 adrenergic receptor (Rattus norvegicus, UniProt P18090).
The target in assay [19] is D(2) dopamine receptor (Homo sapiens, UniProt P14416).
In assay [20] the target is Alpha-1A adrenergic receptor (Rattus norvegicus, UniProt P43140).
Assay [21] concerns the target 5-hydroxytryptamine receptor 2C (Rattus norvegicus, UniProt P08909).
In assay [22] the target is 5-hydroxytryptamine receptor 1D (Cavia porcellus, UniProt Q60484).
The target of assay [23] is 5-hydroxytryptamine receptor 3A (Rattus norvegicus, UniProt P35563).
The target of assay [24] is Alpha-2B adrenergic receptor (Rattus norvegicus, UniProt P19328).
Assay [25] addresses Beta-2 adrenergic receptor (Rattus norvegicus, UniProt P10608).
Assay [26] has as its target 5-hydroxytryptamine receptor 2C (Homo sapiens, UniProt P28335).
The target in assay [27] is Alpha-2A adrenergic receptor (Homo sapiens, UniProt P08913).
Assay [28] concerns the target 5-hydroxytryptamine receptor 1B (Homo sapiens, UniProt P28222).
The target in assay [29] is 5-hydroxytryptamine receptor 1E (Homo sapiens, UniProt P28566).
In assay [30] the target is D(1A) dopamine receptor (Homo sapiens, UniProt P21728).
In assay [31] the target is Gamma-aminobutyric acid receptor subunit alpha-1 (Rattus norvegicus, UniProt P62813).
For assay [32], the target named is 5-hydroxytryptamine receptor 2C (Sus scrofa, UniProt G7ZKZ7).

Values joined by “and” are separate entries in the source; they are usually repeats but may differ in a detail not shown here. Equal values may be shown once. Bounds are passed on as bounds.

Chain of 5-hydroxytryptamine receptor 2A (Rattus norvegicus, UniProt P14842) (P14842 whole entry): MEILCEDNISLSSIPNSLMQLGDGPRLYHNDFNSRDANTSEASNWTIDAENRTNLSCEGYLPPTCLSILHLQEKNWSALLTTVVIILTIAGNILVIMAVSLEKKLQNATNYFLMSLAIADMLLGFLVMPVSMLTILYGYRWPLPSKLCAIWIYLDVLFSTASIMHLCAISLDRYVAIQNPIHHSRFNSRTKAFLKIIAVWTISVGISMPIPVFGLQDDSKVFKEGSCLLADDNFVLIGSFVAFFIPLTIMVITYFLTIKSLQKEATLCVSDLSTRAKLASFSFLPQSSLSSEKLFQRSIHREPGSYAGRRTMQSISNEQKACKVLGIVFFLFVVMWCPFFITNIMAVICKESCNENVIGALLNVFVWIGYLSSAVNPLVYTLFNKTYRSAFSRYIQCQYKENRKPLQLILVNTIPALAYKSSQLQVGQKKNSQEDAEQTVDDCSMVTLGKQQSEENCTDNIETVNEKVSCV
Chain of 5-hydroxytryptamine receptor 2B (P30994 whole entry): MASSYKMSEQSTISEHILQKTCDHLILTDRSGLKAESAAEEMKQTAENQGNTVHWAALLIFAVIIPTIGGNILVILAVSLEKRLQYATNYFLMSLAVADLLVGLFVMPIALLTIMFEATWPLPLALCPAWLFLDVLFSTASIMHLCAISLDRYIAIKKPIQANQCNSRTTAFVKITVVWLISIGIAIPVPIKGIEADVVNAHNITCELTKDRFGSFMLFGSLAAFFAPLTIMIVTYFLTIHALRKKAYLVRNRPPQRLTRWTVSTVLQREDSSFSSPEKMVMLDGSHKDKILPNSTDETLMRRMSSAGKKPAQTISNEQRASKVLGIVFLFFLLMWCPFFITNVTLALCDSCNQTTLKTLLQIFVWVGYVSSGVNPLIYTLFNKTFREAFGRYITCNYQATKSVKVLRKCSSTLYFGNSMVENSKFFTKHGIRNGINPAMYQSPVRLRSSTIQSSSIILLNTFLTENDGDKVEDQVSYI
Chain of D(2) dopamine receptor (Homo sapiens, UniProt P14416) (P14416 whole entry): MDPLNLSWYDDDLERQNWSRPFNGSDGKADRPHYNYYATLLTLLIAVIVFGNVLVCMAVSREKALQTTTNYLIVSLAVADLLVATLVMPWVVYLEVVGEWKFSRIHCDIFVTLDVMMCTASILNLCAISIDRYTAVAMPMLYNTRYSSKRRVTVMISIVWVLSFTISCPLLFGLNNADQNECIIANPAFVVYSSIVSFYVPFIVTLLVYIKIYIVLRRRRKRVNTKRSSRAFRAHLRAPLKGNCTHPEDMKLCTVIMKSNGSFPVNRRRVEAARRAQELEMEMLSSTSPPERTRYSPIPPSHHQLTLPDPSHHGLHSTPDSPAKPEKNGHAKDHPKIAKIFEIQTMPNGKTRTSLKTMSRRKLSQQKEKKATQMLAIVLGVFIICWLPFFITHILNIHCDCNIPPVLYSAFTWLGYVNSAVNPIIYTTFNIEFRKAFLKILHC
Chain of Histamine H1 receptor (P31389 whole entry): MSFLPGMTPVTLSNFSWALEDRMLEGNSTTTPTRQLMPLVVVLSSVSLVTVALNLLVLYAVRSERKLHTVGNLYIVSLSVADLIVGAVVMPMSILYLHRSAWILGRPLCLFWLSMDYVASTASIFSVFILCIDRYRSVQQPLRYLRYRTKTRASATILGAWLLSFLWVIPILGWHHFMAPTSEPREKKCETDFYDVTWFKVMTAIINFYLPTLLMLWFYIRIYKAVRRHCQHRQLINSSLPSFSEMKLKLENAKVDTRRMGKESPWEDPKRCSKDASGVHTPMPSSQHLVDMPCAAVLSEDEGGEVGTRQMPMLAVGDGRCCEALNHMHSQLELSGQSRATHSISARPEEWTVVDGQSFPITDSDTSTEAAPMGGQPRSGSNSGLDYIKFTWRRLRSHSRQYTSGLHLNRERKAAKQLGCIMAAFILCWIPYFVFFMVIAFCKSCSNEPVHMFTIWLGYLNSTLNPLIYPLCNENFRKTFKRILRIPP
Chain of Alpha-1A adrenergic receptor (Rattus norvegicus, UniProt P43140) (P43140 whole entry): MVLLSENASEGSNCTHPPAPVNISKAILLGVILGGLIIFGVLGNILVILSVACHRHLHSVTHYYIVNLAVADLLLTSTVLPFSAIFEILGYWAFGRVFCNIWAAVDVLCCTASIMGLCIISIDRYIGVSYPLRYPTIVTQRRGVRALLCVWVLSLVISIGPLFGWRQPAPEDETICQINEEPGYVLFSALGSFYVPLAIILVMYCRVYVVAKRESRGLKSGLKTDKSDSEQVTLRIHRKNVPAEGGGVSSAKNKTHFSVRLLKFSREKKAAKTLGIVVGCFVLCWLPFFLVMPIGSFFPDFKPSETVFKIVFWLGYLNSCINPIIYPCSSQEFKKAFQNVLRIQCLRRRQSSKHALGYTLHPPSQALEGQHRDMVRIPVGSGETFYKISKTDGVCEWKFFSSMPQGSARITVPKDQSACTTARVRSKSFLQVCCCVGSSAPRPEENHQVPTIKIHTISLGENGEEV
Chain of D(1A) dopamine receptor (Rattus norvegicus, UniProt P18901) (P18901 whole entry): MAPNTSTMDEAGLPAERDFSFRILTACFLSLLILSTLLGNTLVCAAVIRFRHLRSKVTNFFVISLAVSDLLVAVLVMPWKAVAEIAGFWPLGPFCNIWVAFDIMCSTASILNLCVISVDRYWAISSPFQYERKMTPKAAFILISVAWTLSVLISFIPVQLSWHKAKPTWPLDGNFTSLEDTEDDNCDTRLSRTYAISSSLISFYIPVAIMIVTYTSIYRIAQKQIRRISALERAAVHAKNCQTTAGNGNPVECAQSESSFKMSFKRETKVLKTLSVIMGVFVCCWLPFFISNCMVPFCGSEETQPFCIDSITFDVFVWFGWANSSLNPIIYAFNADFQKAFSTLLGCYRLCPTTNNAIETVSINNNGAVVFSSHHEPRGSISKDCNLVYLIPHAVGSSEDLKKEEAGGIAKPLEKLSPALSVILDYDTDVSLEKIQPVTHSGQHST
Chain of Alpha-2C adrenergic receptor (P22086 whole entry): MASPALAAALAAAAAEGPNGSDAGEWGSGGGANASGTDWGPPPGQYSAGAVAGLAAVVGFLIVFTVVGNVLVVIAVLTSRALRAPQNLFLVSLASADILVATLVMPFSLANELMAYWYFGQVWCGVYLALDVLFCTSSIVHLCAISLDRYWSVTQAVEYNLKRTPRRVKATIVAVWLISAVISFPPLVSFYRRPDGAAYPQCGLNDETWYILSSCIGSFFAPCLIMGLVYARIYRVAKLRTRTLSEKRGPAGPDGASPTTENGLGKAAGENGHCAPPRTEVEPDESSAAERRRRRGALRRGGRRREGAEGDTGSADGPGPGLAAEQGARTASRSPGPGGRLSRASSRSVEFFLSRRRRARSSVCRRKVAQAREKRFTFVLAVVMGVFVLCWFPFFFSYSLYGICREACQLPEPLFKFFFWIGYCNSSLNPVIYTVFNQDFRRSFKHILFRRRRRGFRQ
Chain of 5-hydroxytryptamine receptor 4 (Q29006 whole entry): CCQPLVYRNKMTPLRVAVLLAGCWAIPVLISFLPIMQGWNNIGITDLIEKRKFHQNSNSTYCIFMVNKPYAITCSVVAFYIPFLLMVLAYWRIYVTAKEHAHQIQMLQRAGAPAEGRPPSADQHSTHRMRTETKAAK
Chain of 5-hydroxytryptamine receptor 1A (P19327 whole entry): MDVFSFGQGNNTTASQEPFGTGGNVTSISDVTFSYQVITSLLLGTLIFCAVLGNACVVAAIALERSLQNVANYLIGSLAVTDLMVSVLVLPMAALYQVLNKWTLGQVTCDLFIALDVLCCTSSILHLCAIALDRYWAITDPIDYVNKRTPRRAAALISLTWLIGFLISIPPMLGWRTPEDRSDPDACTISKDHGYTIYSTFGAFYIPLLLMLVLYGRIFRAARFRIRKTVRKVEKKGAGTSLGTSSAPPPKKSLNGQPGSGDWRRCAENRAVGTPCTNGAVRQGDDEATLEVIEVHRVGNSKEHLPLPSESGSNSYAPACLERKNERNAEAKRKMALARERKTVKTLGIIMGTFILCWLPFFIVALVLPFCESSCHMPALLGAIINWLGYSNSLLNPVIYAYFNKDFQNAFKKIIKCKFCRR
Chain of Beta-1 adrenergic receptor (Rattus norvegicus, UniProt P18090) (P18090 whole entry): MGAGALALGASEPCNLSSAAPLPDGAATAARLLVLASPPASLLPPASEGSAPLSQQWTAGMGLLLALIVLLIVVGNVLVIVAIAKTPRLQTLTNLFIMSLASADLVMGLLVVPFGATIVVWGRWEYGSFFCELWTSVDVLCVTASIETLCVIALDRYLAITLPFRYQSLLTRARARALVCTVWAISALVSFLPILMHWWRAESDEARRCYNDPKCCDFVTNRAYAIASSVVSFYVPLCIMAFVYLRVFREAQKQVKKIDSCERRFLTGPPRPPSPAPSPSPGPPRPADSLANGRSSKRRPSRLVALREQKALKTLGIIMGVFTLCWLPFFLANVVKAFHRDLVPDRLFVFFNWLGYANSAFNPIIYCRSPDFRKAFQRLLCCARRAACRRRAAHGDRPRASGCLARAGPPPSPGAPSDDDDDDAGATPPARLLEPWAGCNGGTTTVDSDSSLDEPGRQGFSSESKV
Chain of 5-hydroxytryptamine receptor 1B (Oryctolagus cuniculus, UniProt P49144) (P49144 whole entry): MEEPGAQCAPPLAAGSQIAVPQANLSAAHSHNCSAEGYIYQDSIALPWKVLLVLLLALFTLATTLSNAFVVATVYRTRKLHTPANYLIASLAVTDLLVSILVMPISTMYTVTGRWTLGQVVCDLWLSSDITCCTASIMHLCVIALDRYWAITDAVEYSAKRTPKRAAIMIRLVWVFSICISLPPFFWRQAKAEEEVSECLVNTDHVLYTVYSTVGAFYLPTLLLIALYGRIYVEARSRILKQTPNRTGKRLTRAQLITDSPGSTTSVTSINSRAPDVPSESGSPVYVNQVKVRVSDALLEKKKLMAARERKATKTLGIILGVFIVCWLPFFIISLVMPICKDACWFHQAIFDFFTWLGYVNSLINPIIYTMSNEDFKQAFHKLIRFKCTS
Chain of Beta-2 adrenergic receptor (Sylvilagus floridanus, UniProt Q9BFY9) (Q9BFY9 whole entry): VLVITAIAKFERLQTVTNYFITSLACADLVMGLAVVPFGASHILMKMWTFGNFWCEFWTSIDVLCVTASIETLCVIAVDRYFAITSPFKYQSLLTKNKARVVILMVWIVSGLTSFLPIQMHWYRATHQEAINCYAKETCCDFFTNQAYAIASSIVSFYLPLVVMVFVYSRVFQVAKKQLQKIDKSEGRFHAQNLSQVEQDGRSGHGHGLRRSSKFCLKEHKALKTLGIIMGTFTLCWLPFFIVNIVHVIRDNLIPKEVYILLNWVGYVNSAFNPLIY

For orientation: Ki means a measure of affinity in units of concentration, obtained from inhibition or displacement. Turning to `CC(N)Cc1c[nH]c2ccc(OCc3cccs3)cc12` (stereo not drawn) [NSC_5311036], the Ki in assay [1] is 3.98 µM; in [2], above 10 µM; in [3], 0.251 µM; in assay [4], 1.26 µM; in assay [5] it was above 10 µM; in assay [6] it was 0.501 µM. Moreover, the Ki was above 10 µM in assay [7]; above 10 µM in assay [8]; 0.0251 µM in assay [9]; above 10 µM in assay [10]; above 10 µM in assay [11]; above 10 µM in assay [12]. Besides, the Ki in assay [13], in [14], in assay [15], in assay [16] and in assay [17] was above 10 µM in each case.

As for `Cn1ccc2cc(NC(=O)Nc3cccnc3)ccc21` [SB 200646], the Ki is 6.31 µM and 5.01 µM in [1]; above 10 µM in [4]; above 10 µM in assay [18]; above 10 µM in assay [19]; above 10 µM in assay [20]; 0.126 µM in assay [21]. In addition, the Ki was above 10 µM in assay [22]; 0.0316 µM and 0.0631 µM in assay [9]; above 10 µM in assay [23]; above 10 µM in assay [24]; above 10 µM in assay [16]; above 10 µM in [25]. For the same molecule, the values for the Ki in assay [26] and in assay [27] were 0.1 µM and above 10 µM, respectively.

Turning to `Cc1cc(NC(=O)Nc2ccc3c(ccn3C)c2)sn1` [CAS_3277600], the Ki was 5.01 µM in assay [1]; above 10 µM in [2]; above 10 µM in [28]; above 10 µM in assay [29]; above 10 µM in assay [19]; 1 µM in assay [20]. In addition, the inhibitory constant (Ki) is above 10 µM in assay [30]; above 10 µM in assay [31]; 0.0159 µM and 0.0501 µM in [9]; 1 µM in assay [32]; above 10 µM in assay [10]; 1 µM in assay [12].
